SMILES strings stand for the structures.

T1 sequence (Q9Y2T5 whole entry): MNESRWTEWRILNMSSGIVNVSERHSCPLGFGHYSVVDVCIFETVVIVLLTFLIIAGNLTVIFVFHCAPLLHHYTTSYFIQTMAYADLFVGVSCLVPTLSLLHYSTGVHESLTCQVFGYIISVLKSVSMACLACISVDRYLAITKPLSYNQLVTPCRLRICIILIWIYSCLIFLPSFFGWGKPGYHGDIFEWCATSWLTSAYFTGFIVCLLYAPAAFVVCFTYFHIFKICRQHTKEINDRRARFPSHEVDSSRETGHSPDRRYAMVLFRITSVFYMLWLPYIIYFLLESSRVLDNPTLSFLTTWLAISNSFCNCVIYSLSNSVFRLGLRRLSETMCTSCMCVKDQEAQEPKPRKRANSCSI

The assay concerns the target T1, human GPR52 (Homo sapiens, UniProt Q9Y2T5).
T1 construct: expressed in transfected cells; host or cells: CHO(dhfr-) cells
The assay is described as follows: Increase of intracellular cAMP concentration in human GPR52-expressing CHO cell (AlphaScreen cAMP assay). Conditions: 0.5 h; test compound 10 µm, 37°C, 30 min, human GPR52-expressing CHO(dhfr-) cells; 100% = cAMP with 1 µM N-(2-hydroxyethyl)-3-[2-[3-(trifluoromethyl)benzyl]-1-benzofuran-4-yl]benzamide, 0% = DMSO; read-out: GPR52 agonist activity (%). It is filed as cell-based. The procedure:
Increase of intracellular cAMP concentration in human GPR52-expressing CHO cell
Using OptiPlate-384 (PerkinElmer Inc.), 1×10^4 human GPR52-expressing CHO(dhfr-) cells were incubated together with a test compound ([…]) in an assay buffer (30 µL, HBSS (containing Ca^2+ and Mg^2+), 0.5% BSA, 100 µM IBMX, 100 µM Ro20-1724, 5 mM HEPES (pH 7.55)) at 37°C for 30 min. Thereafter, according to the protocol of AlphaScreen cAMP Assay Kit (PerkinElmer Inc.), the intracellular cAMP concentration was measured by EnVision (PerkinElmer Inc.). The GPR52 agonist activity was calculated, assuming the intracellular cAMP concentration in the presence of 1 µM N-(2-hydroxyethyl)-3-[2-[3-(trifluoromethyl)benzyl]-1-benzofuran-4-yl]benzamide to be 100% and assuming the intracellular cAMP concentration when DMSO was added instead of the test compound to be 0%.
(In general: Bead proximity is the source of the signal in Alpha formats.)
Take `Cc1nc(Cc2ccc(F)c(Cl)c2)sc1NC(=O)c1ccnn1C` [Example 156, N-[2-(3-chloro-4-fluorobenzyl)-4-methyl-1,3-thiazol-5-yl]-1-methyl-1H-pyrazole-5-carboxamide]: the activation at 10 µM was found to be 76%. `Cc1nc(Cc2cccc(Cl)c2)sc1NC(=O)c1ccnn1C` [Example 157, N-[2-(3-chlorobenzyl)-4-methyl-1,3-thiazol-5-yl]-1-methyl-1H-pyrazole-5-carboxamide]: the activation at 10 µM is 77%. With `Cc1nc(Cc2cc(F)cc(Cl)c2)sc1NC(=O)c1cc([N+](=O)[O-])nn1C` [Example 158, N-[2-(3-chloro-5-fluorobenzyl)-4-methyl-1,3-thiazol-5-yl]-1-methyl-3-nitro-1H-pyrazole-5-carboxamide] the figure was 69%; with `CCOC(=O)c1cc(C(=O)Nc2sc(Cc3cc(F)cc(Cl)c3)nc2C)n(C)n1` [Example 159, ethyl 5-{[2-(3-chloro-5-fluorobenzyl)-4-methyl-1,3-thiazol-5-yl]carbamoyl}-1-methyl-1H-pyrazole-3-carboxylate], 71%; with `Cc1nc(Cc2ccc(F)c(F)c2)sc1NC(=O)c1ccnn1C` [Example 160, N-[2-(3,4-difluorobenzyl)-4-methyl-1,3-thiazol-5-yl]-1-methyl-1H-pyrazole-5-carboxamide], 74%. Regarding `COCCn1nccc1C(=O)Nc1sc(Cc2cc(F)cc(Cl)c2)nc1C` [Example 161, N-[2-(3-chloro-5-fluorobenzyl)-4-methyl-1,3-thiazol-5-yl]-1-(2-methoxyethyl)-1-pyrazole-5-carboxamide], the activation at 10 µM turned out to be 81%.

In the case of `Cc1nc(Cc2cc(F)cc(Cl)c2)sc1NC(=O)c1ccnn1CC(C)C` [Example 162, N-[2-(3-chloro-5-fluorobenzyl)-4-methyl-1,3-thiazol-5-yl]-1-(2-methylpropyl)-1H-pyrazole-5-carboxamide], the activation at 10 µM was determined as 70%. With `Cc1nc(Cc2cc(F)cc(Cl)c2)sc1NC(=O)c1ccnn1CC(F)(F)F` [Example 163, N-[2-(3-chloro-5-fluorobenzyl)-4-methyl-1,3-thiazol-5-yl]-1-(2,2,2-trifluoroethyl)-1H-pyrazole-5-carboxamide], the activation at 10 µM was determined as 78%. With `Cc1nc(Cc2cc(F)cc(Cl)c2)sc1NC(=O)c1cc(C(N)=O)nn1C` [Example 164, N^5-[2-(3-chloro-5-fluorobenzyl)-4-methyl-1,3-thiazol-5-yl]-1-methyl-1H-pyrazole-3,5-dicarboxamide], the activation at 10 µM came to 80%. As for `Cc1nc(Cc2cc(F)cc(Cl)c2)sc1NC(=O)c1cc(CO)nn1C` [Example 166, N-[2-(3-chloro-5-fluorobenzyl)-4-methyl-1,3-thiazol-5-yl]-3-(hydroxymethyl)-1-methyl-1H-pyrazole-5-carboxamide], the activation at 10 µM turned out to be 88%. Regarding `Cc1nc(Cc2cc(F)cc(Cl)c2)sc1NC(=O)c1ccc(=O)n(C)c1` [Example 167, N-[2-(3-chloro-5-fluorobenzyl)-4-methyl-1,3-thiazol-5-yl]-1-methyl-6-oxo-1,6-dihydropyridine-3-carboxamide], the activation at 10 µM is 70%.

Take `Cc1nc(Cc2cc(F)cc(Cl)c2)sc1NC(=O)c1nc([N+](=O)[O-])cn1C` [Example 169, N-[2-(3-chloro-5-fluorobenzyl)-4-methyl-1,3-thiazol-5-yl]-1-methyl-4-nitro-1H-imidazole-2-carboxamide]: the activation at 10 µM came out at 76%. As to `Cc1nc(Cc2cc(F)cc(Cl)c2)sc1NC(=O)c1cnn(C)c1` [Example 171, N-[2-(3-chloro-5-fluorobenzyl)-4-methyl-1,3-thiazol-5-yl]-1-methyl-1H-pyrazole-4-carboxamide], the activation at 10 µM was determined as 70%. Take `Cc1nc(Cc2cc(F)cc(Cl)c2)sc1NC(=O)C1(S(C)(=O)=O)CC1` [Example 172, N-[2-(3-chloro-5-fluorobenzyl)-4-methyl-1,3-thiazol-5-yl]-1-(methylsulfonyl)cyclopropanecarboxamide]: the activation at 10 µM came out at 89%. Turning to `COCCNC(=O)C1(C(=O)Nc2sc(Cc3cc(F)cc(Cl)c3)nc2C)CC1` [Example 175, N-[2-(3-chloro-5-fluorobenzyl)-4-methyl-1,3-thiazol-5-yl]-N'-(2-methoxyethyl)cyclopropane-1,1-dicarboxamide], the activation at 10 µM worked out at 71%. Regarding `CC(=O)Nc1cn(C)c(C(=O)Nc2sc(Cc3cc(F)cc(Cl)c3)nc2C)n1` [Example 176, 4-(acetylamino)-N-[2-(3-chloro-5-fluorobenzyl)-4-methyl-1,3-thiazol-5-yl]-1-methyl-1H-imidazole-2-carboxamide], the activation at 10 µM came out at 99%. Consider `CCc1cc(C(=O)Nc2sc(Cc3cc(F)cc(Cl)c3)nc2C)n(C)n1` [Example 177, N-[2-(3-chloro-5-fluorobenzyl)-4-methyl-1,3-thiazol-5-yl]-3-ethyl-1-methyl-1H-pyrazole-5-carboxamide], for which the activation at 10 µM amounted to 86%. As to `Cc1nc(Cc2cc(F)cc(Cl)c2)sc1NC(=O)c1c(C)ncn1C` [Example 179, N-[2-(3-chloro-5-fluorobenzyl)-4-methyl-1,3-thiazol-5-yl]-1,4-dimethyl-1H-imidazole-5-carboxamide], the activation at 10 µM was 80%.

In the case of `Cc1nc(Cc2cc(F)cc(Cl)c2)sc1NC(=O)c1ncn(C)c1C` [Example 180, N-[2-(3-chloro-5-fluorobenzyl)-4-methyl-1,3-thiazol-5-yl]-1,5-dimethyl-1H-imidazole-4-carboxamide], the activation at 10 µM was 75%. With `Cc1nc(Cc2cc(F)cc(C(F)(F)F)c2)sc1NC(=O)c1ccnn1C` [Example 181, N-{2-[3-fluoro-5-(trifluoromethyl)benzyl]-4-methyl-1,3-thiazol-5-yl}-1-methyl-1H-pyrazole-5-carboxamide] the figure was 91%; with `Cc1nc(Cc2cc(F)cc(Cl)c2)sc1NC(=O)c1scnc1C` [Example 184, N-[2-(3-chloro-5-fluorobenzyl)-4-methyl-1,3-thiazol-5-yl]-4-methyl-1,3-thiazole-5-carboxamide], 87%. With `Cc1nc(Cc2cc(F)cc(Cl)c2)sc1NC(=O)c1cccn1C` [Example 185, N-[2-(3-chloro-5-fluorobenzyl)-4-methyl-1,3-thiazol-5-yl]-1-methyl-1H-pyrrole-2-carboxamide] the figure was 81%; with `Cc1nc(Cc2cc(F)cc(Cl)c2)sc1NC(=O)c1c(C)noc1C` [Example 186, N-[2-(3-chloro-5-fluorobenzyl)-4-methyl-1,3-thiazol-5-yl]-3,5-dimethylisoxazole-4-carboxamide], 94%. With `Cc1nc(Cc2cc(F)cc(Cl)c2)sc1NC(=O)c1c(Cl)cnn1C` [Example 206, 4-chloro-N-[2-(3-chloro-5-fluorobenzyl)-4-methyl-1,3-thiazol-5-yl]-1-methyl-1H-pyrazole-5-carboxamide] the figure was 74%. Take `Cc1nc(Cc2cc(F)cc(Cl)c2)sc1NC(=O)C1CCS(=O)(=O)CC1` [Example 208, N-[2-(3-chloro-5-fluorobenzyl)-4-methyl-1,3-thiazol-5-yl]-tetrahydro-2H-thiopyran-4-carboxamide 1,1-dioxide]: the activation at 10 µM worked out at 72%. Turning to `Cc1nc(C(O)c2cccc(C(F)(F)F)c2)sc1NC(=O)c1ccnn1C` (stereo not drawn) [Example 210, N-(2-{hydroxy[3-(trifluoromethyl)phenyl]methyl}-4-methyl-1,3-thiazol-5-yl)-1-methyl-1H-pyrazole-5-carboxamide], the activation at 10 µM came out at 82%.

Regarding `Cc1nc(Cc2cc(F)cc(Cl)c2)sc1NC(=O)C1CCS(=O)(=O)C1` (stereo not drawn) [Example 216, N-[2-(3-chloro-5-fluorobenzyl)-4-methyl-1,3-thiazol-5-yl]-tetrahydrothiophene-3-carboxamide 1,1-dioxide], the activation at 10 µM worked out at 77%.

As to `COc1cccc(Cc2nc(C)c(NC(=O)c3ccnn3C)s2)c1` [Example 219, N-[2-(3-methoxybenzyl)-4-methyl-1,3-thiazol-5-yl]-1-methyl-1H-pyrazole-5-carboxamide], the activation at 10 µM was found to be 82%. As for `Cc1nc(Cc2cc(F)cc(F)c2)sc1NC(=O)c1ccnn1C` [Example 220, N-[2-(3,5-difluorobenzyl)-4-methyl-1,3-thiazol-5-yl]-1-methyl-1H-pyrazole-5-carboxamide], the activation at 10 µM came out at 79%.

Take `Cc1cccc(Cc2nc(C)c(NC(=O)c3ccnn3C)s2)c1` [Example 221, 1-methyl-N-[4-methyl-2-(3-methylbenzyl)-1,3-thiazol-5-yl]-1H-pyrazole-5-carboxamide]: the activation at 10 µM worked out at 90%.

With `Cc1nc(Cc2cccc(Br)c2)sc1NC(=O)c1ccnn1C` [Example 224, N-[2-(3-bromobenzyl)-4-methyl-1,3-thiazol-5-yl]-1-methyl-1H-pyrazole-5-carboxamide], the activation at 10 µM worked out at 80%.

Consider `Cc1nc(Cc2cccc(C3CC3)c2)sc1NC(=O)c1ccnn1C` [Example 227, N-[2-(3-cyclopropylbenzyl)-4-methyl-1,3-thiazol-5-yl]-1-methyl-1H-pyrazole-5-carboxamide], for which the activation at 10 µM stood at 101%. `Cc1nc(Cc2cc(F)cc(Cl)c2)sc1NC(=O)c1cccc(S(C)(=O)=O)c1` [Example 228, N-[2-(3-chloro-5-fluorobenzyl)-4-methyl-1,3-thiazol-5-yl]-3-(methylsulfonyl)benzamide]: the activation at 10 µM is 69%.

These data come from patent EP2530078A1, “THIAZOLE DERIVATIVE” (Takeda Pharmaceutical Company Limited, priority 2010, dated 2011).
